From paper PMC3635961, “Identification of genes related to agarwood formation: transcriptome analysis of healthy and wounded tissues of Aquilaria sinensis” (BMC Genomics, 2013) come the findings set out here.

Numbering of substitutions follows the chain as printed.

Assay in all cases: GC-MS of volatile products (SPME)
Format in all cases: biochemical
Common to all, as to conditions: Tris-HCl pH 7.0, MgSO4, DTT, 10% glycerol, 30 C, 4 h; crude protein extract

For one experiment, the target named is T1, ASS1 (Aquilaria sinensis, UniProt K9MQ67).
T1 construct: full-length ORF (1644 nt, 547 residues), pET-28a XhoI/BamHI, His-tag fusion, E. coli BL21(DE3); crude protein extract assayed
T1 sequence (K9MQ67 entry or part of it): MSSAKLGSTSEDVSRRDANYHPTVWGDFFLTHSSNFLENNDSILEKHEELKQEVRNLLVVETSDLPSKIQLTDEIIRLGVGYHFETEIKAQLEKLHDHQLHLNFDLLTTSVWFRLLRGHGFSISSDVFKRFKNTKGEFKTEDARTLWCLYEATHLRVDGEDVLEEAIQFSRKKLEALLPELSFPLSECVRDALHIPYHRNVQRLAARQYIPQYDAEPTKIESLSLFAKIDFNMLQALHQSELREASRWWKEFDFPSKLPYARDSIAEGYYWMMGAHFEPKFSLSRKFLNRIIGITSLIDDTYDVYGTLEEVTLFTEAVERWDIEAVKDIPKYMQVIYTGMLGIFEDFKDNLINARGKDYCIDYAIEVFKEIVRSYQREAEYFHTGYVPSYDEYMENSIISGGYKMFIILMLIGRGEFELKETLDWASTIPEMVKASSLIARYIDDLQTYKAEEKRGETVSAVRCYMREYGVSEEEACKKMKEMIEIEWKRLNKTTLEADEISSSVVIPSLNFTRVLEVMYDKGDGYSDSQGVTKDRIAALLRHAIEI

A further experiment has as its target T2, ASS2 (Aquilaria sinensis, UniProt K9MNV6).
T2 construct: full-length ORF (1644 nt, 547 residues), pET-28a fusion protein, E. coli; crude protein extract assayed
T2 sequence (K9MNV6 1-547): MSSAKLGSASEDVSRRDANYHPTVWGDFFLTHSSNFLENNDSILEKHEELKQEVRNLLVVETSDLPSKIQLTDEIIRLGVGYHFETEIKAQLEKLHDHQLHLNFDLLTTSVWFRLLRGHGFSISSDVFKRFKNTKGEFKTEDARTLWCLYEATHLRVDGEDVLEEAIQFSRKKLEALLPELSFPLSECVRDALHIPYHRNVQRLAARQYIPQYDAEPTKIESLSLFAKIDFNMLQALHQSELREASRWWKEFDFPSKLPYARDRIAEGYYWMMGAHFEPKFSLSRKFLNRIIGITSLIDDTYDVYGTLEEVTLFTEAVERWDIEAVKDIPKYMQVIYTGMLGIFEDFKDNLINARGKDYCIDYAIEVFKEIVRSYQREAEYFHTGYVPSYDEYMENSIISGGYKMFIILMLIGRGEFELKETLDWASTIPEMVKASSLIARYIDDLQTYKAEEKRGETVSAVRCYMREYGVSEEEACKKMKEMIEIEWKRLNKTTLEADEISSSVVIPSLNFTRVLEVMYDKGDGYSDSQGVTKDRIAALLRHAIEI

The target in the next experiment is T3, ASS3 (Aquilaria sinensis, UniProt K9MPP8).
T3 construct: full-length ORF (1644 nt, 547 residues), pET-28a fusion protein, E. coli; crude protein extract assayed
T3 sequence (K9MPP8 1-547): T2 sequence (K9MNV6 1-547) with K454E, K481R

Turning to `CC(C)=CCC/C(C)=C/CC/C(C)=C/COP(=O)(O)OP(=O)(O)O` [FPP], the “GC-MS of volatile products (SPME)” value was “ASS1-3 did not accept geranyl diphosphate or geranylgeranyl diphosphate as a substrate, converting only FPP” at ASS1; “ASS1-3 did not accept geranyl diphosphate or geranylgeranyl diphosphate as a substrate, converting only FPP” on ASS2; “ASS1-3 did not accept geranyl diphosphate or geranylgeranyl diphosphate as a substrate, converting only FPP” on ASS3.
